Measurements: PMC11484942, “Rumicidins are a family of mammalian host-defense peptides plugging the 70S ribosome exit tunnel” (Nature Communications, 2024)

Legend:
Caco-2 cells = assay: Cytokine response, multiplex xMAP; type: cell-based, human; details: 2 µM peptide, 24 h
E. coli 1057 WT = assay: microbe, parasite or virus in culture; type: cell-based, Escherichia coli; details: MHB + 0.9% NaCl
Procedure: Minimum inhibitory concentrations (MIC) were determined by broth microdilution assay based on Clinical and Laboratory Standards Institute (CLSI) guidelines using BSA in the growth medium to minimize AMP nonspecific adsorption[49]. Bacterial test cultures were grown in the Mueller-Hinton broth (MHB, Sigma) at 37 °C to mid-log phase and then diluted with the 2× MH medium supplemented with 1.8% NaCl (or without salt) so that to reach a final cell concentration of 10^6 CFU/mL. 50 µL of the obtained bacterial suspension were added to aliquots of 50 µL of the peptide solutions serially diluted with sterilized 0.1% bovine serum albumin (BSA) in 96-well flat-bottom polystyrene microplates (Eppendorf #0030730011). […] To verify MIC values, the respiratory activity of the bacteria was determined. Briefly, 5 µL of 0.5 mg/mL resazurin (Sigma) was added to the wells after 24 h (or after 48 h for M. smegmatis) of incubation, and the plate was incubated for additional 3 h. In some cases, MICs were determined in the Lysogeny Broth (LB) or Middlebrook 7H9 medium. The reduction of resazurin to resorufin was recorded. […] The results were expressed as the median values determined based on at least three independent experiments performed in triplicate.

[1] = tested on: E. coli 1057 R2 (rpoS^Q3stop, macB^N470D); details: MHB + 0.9% NaCl
Procedure, shortened: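 Broth microdilution (CLSI-based) used 10^6 CFU/mL mid-log cells in MHB with or without added NaCl, and peptides serially diluted in 0.1% BSA at 37 °C. Resistance induction used daily serial passage from sub-MIC wells, followed by 3 drug-free passages before the final MIC.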

CC[C@H](C)[C@H](NC(=O)[C@H](CCCCN)NC(=O)[C@H](CCC(=O)O)NC(=O)[C@H](CCCCN)NC(=O)[C@H](CO)NC(=O)[C@H](CCCCN)NC(=O)[C@H](CCCNC(=N)N)NC(=O)[C@H](Cc1ccccc1)NC(=O)[C@H](Cc1ccccc1)NC(=O)[C@H](CC(=O)O)NC(=O)CNC(=O)[C@H](CC(C)C)NC(=O)[C@@H](N)CC(C)C)C(=O)NCC(=O)N[C@@H](CCCCN)C(=O)N[C@@H](CCC(=O)O)C(=O)N[C@@H](Cc1ccccc1)C(=O)N[C@@H](CCCCN)C(=O)N[C@@H](CCCNC(=N)N)C(=O)N[C@H](C(=O)N[C@H](C(=O)N[C@@H](CCC(N)=O)C(=O)N[C@@H](CCCNC(=N)N)C(=O)N[C@H](C(=O)N[C@@H](CCCCN)C(=O)N[C@@H](CC(=O)O)C(=O)N[C@@H](Cc1ccccc1)C(=O)N[C@@H](CC(C)C)C(=O)N[C@@H](CCCNC(=N)N)C(=O)N[C@@H](CC(N)=O)C(=O)N[C@@H](CC(C)C)C(=O)N[C@H](C(=O)N1CCC[C@H]1C(=O)N[C@@H](CCCNC(=N)N)C(=O)N[C@H](C(=O)N[C@@H](CCC(=O)O)C(=O)N[C@@H](CO)C(=O)O)[C@@H](C)O)C(C)C)[C@@H](C)CC)C(C)C)[C@@H](C)CC [LL-37]
Eotaxin (Caco-2 cells): < 2.04 pg/mL | GM-CSF (Caco-2 cells): 0,45 pg/ml | IFNa2 (Caco-2 cells): 3,72 pg/ml | IFNg (Caco-2 cells): < 1.31 pg/mL | IL-1RA (Caco-2 cells): < 2.66 pg/mL | IL-1a (Caco-2 cells): < 1.13 pg/mL | IL-1b (Caco-2 cells): < 2.88 pg/mL | IL-2 (Caco-2 cells): < 2.73 pg/mL | IL-3 (Caco-2 cells): < 3.02 pg/mL | IL-4 (Caco-2 cells): 43,73 pg/ml | IL-5 (Caco-2 cells): < 2.74 pg/mL | IL-6 (Caco-2 cells): < 2.42 pg/mL | IL-7 (Caco-2 cells): < 2.06 pg/mL | IL-8 (Caco-2 cells): 3,19 pg/ml | IL-9 (Caco-2 cells): < 3.08 pg/mL | IL-10 (Caco-2 cells): < 1.47 pg/mL | IL-12p40 (Caco-2 cells): < 3.69 pg/mL | IL-12p70 (Caco-2 cells): 0,29 pg/ml | IL-15 (Caco-2 cells): < 2.08 pg/mL | IL-17A (Caco-2 cells): < 0.94 pg/mL | IP-10 (Caco-2 cells): 114,78 pg/ml | RANTES (Caco-2 cells): 1050 pg/mL | TGF-a (Caco-2 cells): < 2.64 pg/mL | TNFa (Caco-2 cells): < 2.85 pg/mL | TNFb (Caco-2 cells): < 2.85 pg/mL | sCD40L (Caco-2 cells): 2,12 pg/ml | MIC (E. coli 1057 WT): 2 µM | MIC [1]: 2 µM
